Key:
[1] = biological target: SWI/SNF-related matrix-associated actin-dependent regulator of chromatin subfamily A member 2 (Homo sapiens, UniProt P51531); test: Inhibition of SMARCA2 (unknown origin) assessed as dissociation constant
[2] = species on record: Homo sapiens; test: Selectivity index, ratio of DC50 for VHL/SMARCA2 in human RKO cells to DC50 for VHL/SMARCA4 in human RKO cells; type: cell-based
[3] = Oral bioavailability in NMRI mouse; type: ADME, organism-based; conditions: in vivo
[4] = biological target: von Hippel-Lindau disease tumor suppressor/SWI/SNF-related matrix-associated actin-dependent regulator of chromatin subfamily A member 4 (Homo sapiens, UniProt P51532+P40337); test: Protac activity at VHL/SMARCA4 in human RKO cells assessed as degradation of SMARCA4; type: cell-based
Chain of von Hippel-Lindau disease tumor suppressor/SWI/SNF-related matrix-associated actin-dependent regulator of chromatin subfamily A member 4 (P51532 whole entry): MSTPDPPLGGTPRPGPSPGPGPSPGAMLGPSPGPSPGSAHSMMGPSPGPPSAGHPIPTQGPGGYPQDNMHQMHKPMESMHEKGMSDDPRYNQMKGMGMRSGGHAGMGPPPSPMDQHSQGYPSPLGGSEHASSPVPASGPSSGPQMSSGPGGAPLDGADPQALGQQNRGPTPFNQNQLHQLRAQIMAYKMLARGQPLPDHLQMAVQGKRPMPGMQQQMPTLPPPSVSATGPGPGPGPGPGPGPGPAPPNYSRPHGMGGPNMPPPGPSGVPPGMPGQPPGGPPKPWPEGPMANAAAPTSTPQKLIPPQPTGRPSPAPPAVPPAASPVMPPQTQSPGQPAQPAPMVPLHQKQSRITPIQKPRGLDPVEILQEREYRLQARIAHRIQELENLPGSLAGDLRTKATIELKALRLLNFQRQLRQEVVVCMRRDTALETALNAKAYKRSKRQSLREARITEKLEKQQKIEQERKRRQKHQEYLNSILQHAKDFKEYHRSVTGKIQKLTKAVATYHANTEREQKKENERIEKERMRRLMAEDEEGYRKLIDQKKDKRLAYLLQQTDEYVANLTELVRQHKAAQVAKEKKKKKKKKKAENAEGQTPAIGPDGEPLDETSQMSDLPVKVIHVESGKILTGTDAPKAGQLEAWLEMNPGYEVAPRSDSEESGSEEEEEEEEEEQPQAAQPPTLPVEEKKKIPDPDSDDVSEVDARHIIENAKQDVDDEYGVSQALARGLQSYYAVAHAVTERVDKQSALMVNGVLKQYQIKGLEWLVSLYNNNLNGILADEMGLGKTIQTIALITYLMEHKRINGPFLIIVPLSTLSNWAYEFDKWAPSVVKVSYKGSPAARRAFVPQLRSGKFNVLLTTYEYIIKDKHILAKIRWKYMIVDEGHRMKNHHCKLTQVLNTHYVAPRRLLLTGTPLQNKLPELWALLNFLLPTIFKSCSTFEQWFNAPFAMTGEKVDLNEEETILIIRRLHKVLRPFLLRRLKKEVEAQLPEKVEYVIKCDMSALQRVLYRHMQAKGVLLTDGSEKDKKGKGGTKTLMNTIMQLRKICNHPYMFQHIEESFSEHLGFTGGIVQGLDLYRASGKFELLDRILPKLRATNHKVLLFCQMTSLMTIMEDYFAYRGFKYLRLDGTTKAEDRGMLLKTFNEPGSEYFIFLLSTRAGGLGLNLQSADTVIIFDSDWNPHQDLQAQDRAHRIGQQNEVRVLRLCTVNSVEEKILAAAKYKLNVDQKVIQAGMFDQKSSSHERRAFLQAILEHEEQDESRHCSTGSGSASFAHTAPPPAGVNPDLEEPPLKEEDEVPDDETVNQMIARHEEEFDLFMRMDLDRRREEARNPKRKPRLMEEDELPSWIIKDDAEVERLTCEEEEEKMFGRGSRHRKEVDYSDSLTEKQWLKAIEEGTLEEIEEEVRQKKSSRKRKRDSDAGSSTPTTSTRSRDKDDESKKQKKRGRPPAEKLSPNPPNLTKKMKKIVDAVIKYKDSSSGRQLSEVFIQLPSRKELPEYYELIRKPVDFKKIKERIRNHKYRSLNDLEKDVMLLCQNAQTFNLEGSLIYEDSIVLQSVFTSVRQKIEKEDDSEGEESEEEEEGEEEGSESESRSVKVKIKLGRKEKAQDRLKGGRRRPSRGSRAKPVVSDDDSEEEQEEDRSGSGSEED
Chain of von Hippel-Lindau disease tumor suppressor/SWI/SNF-related matrix-associated actin-dependent regulator of chromatin subfamily A member 4 (P40337 whole entry): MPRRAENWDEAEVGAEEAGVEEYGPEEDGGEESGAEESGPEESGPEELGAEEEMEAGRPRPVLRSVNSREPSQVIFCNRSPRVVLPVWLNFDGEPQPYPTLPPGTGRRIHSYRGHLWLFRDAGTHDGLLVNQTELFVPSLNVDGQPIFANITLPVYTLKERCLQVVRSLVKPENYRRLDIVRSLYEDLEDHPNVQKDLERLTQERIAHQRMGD

[5] = biological target: T1, von Hippel-Lindau disease tumor suppressor/SWI/SNF-related matrix-associated actin-dependent regulator of chromatin subfamily A member 2 (Homo sapiens, UniProt P51531+P40337); test: Protac activity at VHL/SMARCA2 in human RKO cells assessed as degradation of SMARCA2; type: cell-based
Target sequence in this assay (P51531 whole entry): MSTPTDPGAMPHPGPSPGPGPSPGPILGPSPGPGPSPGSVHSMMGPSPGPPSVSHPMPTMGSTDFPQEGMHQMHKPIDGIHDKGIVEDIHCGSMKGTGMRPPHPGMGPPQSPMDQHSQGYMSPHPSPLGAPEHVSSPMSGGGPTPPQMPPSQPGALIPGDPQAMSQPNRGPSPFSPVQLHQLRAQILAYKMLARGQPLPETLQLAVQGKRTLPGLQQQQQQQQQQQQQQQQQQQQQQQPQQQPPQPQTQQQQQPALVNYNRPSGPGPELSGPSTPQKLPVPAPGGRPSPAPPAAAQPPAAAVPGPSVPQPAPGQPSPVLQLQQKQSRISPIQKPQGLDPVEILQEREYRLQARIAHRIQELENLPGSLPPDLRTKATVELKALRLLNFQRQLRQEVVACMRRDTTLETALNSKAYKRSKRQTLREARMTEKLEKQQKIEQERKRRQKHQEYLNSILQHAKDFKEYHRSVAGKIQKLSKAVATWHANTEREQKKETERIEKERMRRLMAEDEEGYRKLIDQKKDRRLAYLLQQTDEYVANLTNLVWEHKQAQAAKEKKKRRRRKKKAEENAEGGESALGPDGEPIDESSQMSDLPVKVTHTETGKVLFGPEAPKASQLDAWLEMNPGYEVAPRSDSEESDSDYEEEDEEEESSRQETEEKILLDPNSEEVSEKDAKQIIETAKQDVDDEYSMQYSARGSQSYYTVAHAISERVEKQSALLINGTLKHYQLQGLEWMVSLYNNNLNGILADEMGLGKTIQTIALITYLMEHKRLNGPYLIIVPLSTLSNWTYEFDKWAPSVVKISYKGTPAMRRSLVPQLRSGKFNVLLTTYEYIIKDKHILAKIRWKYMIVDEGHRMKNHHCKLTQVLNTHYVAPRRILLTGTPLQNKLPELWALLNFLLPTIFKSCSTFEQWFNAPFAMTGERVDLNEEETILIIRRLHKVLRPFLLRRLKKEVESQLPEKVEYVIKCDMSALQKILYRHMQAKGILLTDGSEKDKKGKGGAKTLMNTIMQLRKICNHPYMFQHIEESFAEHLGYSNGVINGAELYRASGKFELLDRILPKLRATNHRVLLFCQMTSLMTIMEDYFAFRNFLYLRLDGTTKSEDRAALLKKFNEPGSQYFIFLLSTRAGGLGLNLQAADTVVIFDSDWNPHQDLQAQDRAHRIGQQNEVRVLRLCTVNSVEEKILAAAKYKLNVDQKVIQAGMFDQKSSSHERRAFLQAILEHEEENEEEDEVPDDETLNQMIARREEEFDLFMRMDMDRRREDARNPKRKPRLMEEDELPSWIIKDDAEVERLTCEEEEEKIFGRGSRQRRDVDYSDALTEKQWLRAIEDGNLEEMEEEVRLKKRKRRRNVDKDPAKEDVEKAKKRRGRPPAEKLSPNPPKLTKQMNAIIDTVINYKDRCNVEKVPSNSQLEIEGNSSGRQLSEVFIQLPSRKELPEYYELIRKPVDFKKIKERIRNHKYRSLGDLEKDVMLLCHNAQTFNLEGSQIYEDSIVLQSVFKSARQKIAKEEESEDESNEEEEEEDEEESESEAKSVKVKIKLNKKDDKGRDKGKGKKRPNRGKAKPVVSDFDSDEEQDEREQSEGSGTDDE
Target sequence in this assay (P40337 whole entry): as the sequence (P40337 whole entry) above

[6] = biological target: T1, von Hippel-Lindau disease tumor suppressor/SWI/SNF-related matrix-associated actin-dependent regulator of chromatin subfamily A member 2; test: Protac activity at VHL/SMARCA2 (unknown origin) assessed as degradation of SMARCA2; type: protein assay
Target sequence in this assay (P51531 whole entry): as the sequence (P51531 whole entry) above
Target sequence in this assay (P40337 whole entry): as the sequence (P40337 whole entry) above

[7] = biological target: T1, von Hippel-Lindau disease tumor suppressor/SWI/SNF-related matrix-associated actin-dependent regulator of chromatin subfamily A member 2; test: Protac activity at VHL/SMARCA2 (unknown origin) assessed as degradation of SMARCA2 relative to control; type: protein assay
Target sequence in this assay (P40337 whole entry, looked up): as the sequence (P40337 whole entry) above
Target sequence in this assay (P51531 whole entry, looked up): as the sequence (P51531 whole entry) above

Chain of SWI/SNF-related matrix-associated actin-dependent regulator of chromatin subfamily A member 2 (P51531 whole entry): as above

## O=c1nc2n(C3CCCC3)c3cc(C4CCNCC4)ccc3n2c2cccc(Br)c12
[1]
  Kd: 46 nM

## Cc1ncsc1-c1ccc(CNC(=O)[C@@H]2C[C@@H](O)CN2C(=O)[C@@H](NC(=O)C2(F)CC2)C(C)(C)C)c(CC[C@H](C)CCN2CCC(c3ccc4c(c3)n(C3CCCC3)c3nc(=O)c5c(Br)cccc5n43)CC2)c1
[2]
  Selectivity Index: > 30
[3]
  bioavailability: 22%
[4]
  DC50: 32 nM
[5]
  DC50: 1 nM

## Cc1ncsc1-c1ccc(CNC(=O)[C@@H]2C[C@@H](O)CN2C(=O)[C@@H](NC(=O)C2(F)CC2)C(C)(C)C)c(OCCCN2CCC(c3ccc4c(c3)n(C3CCCC3)c3nc(=O)c5c(Br)cccc5n43)CC2)c1
[6]
  DC50: 78 nM
[7]
  Emax: 46%

— ChEMBL document CHEMBL5360624, “Exploitation of Proximity-Mediated Effects in Drug Discovery: An Update of Recent Research Highlights in Perturbing Pathogenic Proteins and Correlated Issues” (J Med Chem, 2023)
